Experimental data reported in the supplement of paper PMC12420376.

Experiments:
[1] = system: OVCAR8; assay: drug sensitivity score (DSS2) on cancer cell count; higher = more sensitive; extreme values may be limits of the assay; conditions: 72 h
Summary of the method: (§1)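 Ovarian cancer cells were grown alone or in 1:1 direct co-culture with lung or skin fibroblasts. They were plated onto 384-well plates pre-spotted acoustically with 528 approved and investigational compounds at 5 concentrations, then treated for 72 h. Cells were fixed, immunostained for CK8/18 with Hoechst, and imaged at 10× (4 fields) to count cancer cells. A drug sensitivity score (DSS2) was derived in Breeze from 4-parameter logistic fits, with screen quality checked by Z'.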

[2] = system: KURAMOCHI; assay: as above; conditions: 72 h
Summary of the method: as §1

[3] = co-cultured fibroblast: BJHTERT
[4] = co-cultured fibroblast: none (monoculture)

SMILES	drug sensitivity score [1, 3]	drug sensitivity score ([1]; co-cultured fibroblast: WI38)	drug sensitivity score [1, 4]	drug sensitivity score [2, 3]	drug sensitivity score ([2]; co-cultured fibroblast: WI38)	drug sensitivity score [2, 4]
Cc1cc([C@@H](C)Nc2ccccc2C(=O)O)c2nc(N3CCOCC3)cc(=O)n2c1 [AZD-6482]	1.2 DSS	0 DSS	0 DSS	6.1 DSS	1.5 DSS	4.4 DSS
CC/C(=C(\c1ccccc1)c1ccc(OCCN(C)C)cc1)c1ccccc1 [Tamoxifen]	3.3 DSS	0 DSS	1 DSS	1.3 DSS	1.3 DSS	0 DSS
Cn1cc(C2=Nc3cc(NC(=O)C(N)C4CCCCC4)cc4c3C2=CNNC4=O)cn1 (stereo unspecified)	16.2 DSS	13 DSS	16.7 DSS	14.6 DSS	12.1 DSS	21 DSS
CN1CCC(COc2cnc(-c3cccc(Cn4nc(-c5cccc(C#N)c5)ccc4=O)c3)nc2)CC1 [Tepotinib]	0 DSS	0 DSS	1.8 DSS	0.2 DSS	0 DSS	3 DSS
CC(C)Oc1ccc(-c2nn([C@@H](C)c3oc4ccc(F)cc4c(=O)c3-c3cccc(F)c3)c3ncnc(N)c23)cc1F [TGR-1202]	0 DSS	0 DSS	0 DSS	0 DSS	0 DSS	0 DSS
Cc1ncc(Cl)cc1NCc1ccc(C(=O)N[C@@H](CC2CCCC2)C(=O)NC2CC2)s1	0 DSS	0 DSS	0 DSS	0 DSS	0 DSS	0 DSS
CCCCOc1nc(N)c2c(n1)N(Cc1cccc(CN3CCCC3)c1)CC(=O)N2 [Vesatolimod]	0.4 DSS	0 DSS	0 DSS	2.9 DSS	0 DSS	0 DSS
COCCNCc1ccc(-c2cc3nccc(Oc4ccc(NC(=S)NC(=O)Cc5ccc(F)cc5)cc4F)c3s2)nc1 [Glesatinib]	0 DSS	3.5 DSS	0 DSS	2.7 DSS	1.6 DSS	2.3 DSS
C=CCn1c(=O)c2cnc(Nc3ccc(N4CCN(C)CC4)cc3)nc2n1-c1cccc(C(C)(C)O)n1 [AZD1775]	21 DSS	14.9 DSS	18.4 DSS	15.3 DSS	12.7 DSS	13.2 DSS
CCc1c2c(nc3ccc(O)cc13)-c1cc3c(c(=O)n1C2)COC(=O)[C@]3(O)CC [SN-38]	40.9 DSS	40.9 DSS	45 DSS	31.7 DSS	39.5 DSS	41 DSS
O=C(O)C(=O)O.[NH-][C@@H]1CCCC[C@H]1[NH-].[Pt+2] [Oxaliplatin]	13.9 DSS	19.6 DSS	18.2 DSS	9.3 DSS	16 DSS	18.1 DSS
CNS(=O)(=O)Nc1nccc(Cc2c(C)c3ccc(Oc4ncccn4)cc3oc2=O)c1F	0 DSS	5.7 DSS	0.2 DSS	0 DSS	0 DSS	4.3 DSS
COc1cc2c(Oc3ccc(NC(=O)C4(C(=O)Nc5ccc(F)cc5)CC4)cc3F)ccnc2cc1OCCCN1CCOCC1 [Foretinib]	5.7 DSS	5.6 DSS	6.1 DSS	2.7 DSS	4.3 DSS	1.7 DSS
Nc1ccccc1NC(=O)c1ccc(CNc2nccc(-c3cccnc3)n2)cc1 [Mocetinostat]	14 DSS	19.3 DSS	21.7 DSS	10.4 DSS	13.9 DSS	13.7 DSS
N[C@@H]1CCCN(c2c(/C=C3\SC(=O)NC3=O)cccc2-c2ccccc2)C1 [AZD1208]	0 DSS	0 DSS	1.8 DSS	0 DSS	1.7 DSS	1.3 DSS
N#CC(c1ccnc(OCc2ccc(CN3CCOCC3)cc2)n1)c1nc2ccccc2s1 (stereo unspecified) [Bentamapimod]	0 DSS	0 DSS	1.4 DSS	2.5 DSS	2.3 DSS	0.2 DSS
COc1cc2c(Nc3ccc(Cl)c(Cl)c3F)ncnc2cc1OC[C@@H]1C[C@@H]2CN(C)C[C@@H]2C1 [Tesevatinib]	3.3 DSS	0.4 DSS	3.4 DSS	5 DSS	1.4 DSS	11.7 DSS
COc1ccc(COc2cc3oc(=O)c4cc(C(C)O)ccc4c3cc2OC)cc1 (stereo unspecified) [Palomid-529]	1.1 DSS	1 DSS	0 DSS	0 DSS	0 DSS	0 DSS
O=C1CCC(N2C(=O)c3ccccc3C2=O)C(=O)N1 (stereo unspecified) [Thalidomide]	0 DSS	0 DSS	0 DSS	0 DSS	0 DSS	0 DSS
C=CC(=O)N1CC/C(=C\c2ccc(F)c([N+](=O)[O-])c2)C(=O)/C(=C/c2ccc(F)c([N+](=O)[O-])c2)C1 [VLX1570]	24.8 DSS	31.1 DSS	31.7 DSS	27.4 DSS	24.7 DSS	29 DSS
COc1cc2nccc(Oc3ccc(NC(=O)C4(C(=O)Nc5ccc(F)cc5)CC4)cc3)c2cc1OC [Cabozantinib]	0 DSS	0.2 DSS	4.4 DSS	0.4 DSS	0 DSS	0 DSS
CC(C)n1nc(-c2ccc3oc(N)nc3c2)c2c(N)ncnc21 [Sapanisertib]	11 DSS	7.9 DSS	11.8 DSS	13.5 DSS	12.4 DSS	15.1 DSS
Nc1cc(F)ccc1NC(=O)c1ccc(CNC(=O)/C=C/c2cccnc2)cc1 [Tucidinostat]	8 DSS	4.4 DSS	11.8 DSS	7.6 DSS	11.2 DSS	9.7 DSS
CN(C)C(=O)c1ccc(S(=O)(=O)c2ccc(NC(=O)[C@@](C)(O)C(F)(F)F)c(Cl)c2)cc1 [AZD7545]	3.4 DSS	0 DSS	0.7 DSS	0.4 DSS	0 DSS	0 DSS
Cc1c(F)cc(C(=O)NC2CC2)cc1-c1ccc(C(=O)NCC(C)(C)C)cn1 [Losmapimod]	0.7 DSS	0 DSS	1.5 DSS	2.4 DSS	0 DSS	0 DSS
CNC(=O)c1cccc(-c2ccc3c(N4CCOC[C@@H]4C)nc(N4CCOC[C@@H]4C)nc3n2)c1 [Vistusertib]	13.1 DSS	7.6 DSS	16.1 DSS	10.6 DSS	8.3 DSS	7.5 DSS
